Data as given in publication PMC4311994, “Identification, Expression Profiling and Fluorescence-Based Binding Assays of a Chemosensory Protein Gene from the Western Flower Thrips, Frankliniella occidentalis” (PLoS ONE, 2015).
Where two headings read alike, the source gives them in different places.

Key:
[1] = molecular target: recombinant FoccCSP protein (Frankliniella occidentalis, UniProt A0A0C5AYL1); test: biochemical; format: binding; settings: for Kd: Dissociation constant (KD), calculated from IC50 with Ki = [IC50]/(1+[1-NPN]/K1-NPN)
Description: (§1) Fluorescence binding assays were performed using a 970CRT spectrofluorophotometer (Lengguang, Shanghai, China) at 25°C with a 1 cm lightpath quartz cuvette and 10 nm slit width for excitation and emission. FoccCSP protein was diluted from a 2 μM stock solution with 50 mM Tris-HCl buffer (pH 7.4). The fluorescent probe N-phenyl-1-naphthylamine (1-NPN) was diluted from a 1 mM stock solution with methanol. The potential ligands were prepared in a similar manner as 1-NPN.
To measure the affinity of the 1-NPN fluorescent ligand for FoccCSP, the 2 μM protein solution prepared above was titrated with 1 mM 1-NPN to a final concentration between 2 and 20 μM. The affinities of the other potential ligands were measured using 1-NPN as a fluorescent reporter in competitive binding assays using 2 μM solutions of 1-NPN and FoccCSP and the addition of ligands to concentrations of 2–300 μM.
To determine the 1-NPN and FoccCSP binding constants, the intensity values corresponding to the maximum fluorescence emissions were plotted against the concentration of free ligand. The bound ligand was evaluated using the fluorescence intensity values assuming that the protein was 100% active and using a saturation stoichiometry of 1:1 protein:ligand. The curves were linearized using the Scatchard Plot program. The dissociation constants for the competitors were calculated from the corresponding IC50 values using the equation K i = [IC 50]/(1+[1-NPN]/K 1-NPN), where [1-NPN] is the free concentration of 1-NPN and K 1-NPN is the dissociation constant of the FoccCSP/1-NPN complex.

[2] = molecular target: T1, FoccCSP protein (Frankliniella occidentalis, UniProt A0A0C5AYL1); test: Binding of the fluorescent probe 1-NPN to FoccCSP (titration, Scatchard plot); settings: 2 μM FoccCSP titrated with 1-NPN to 2–20 μM, read-out: FoccCSP/1-NPN complex dissociation constant
T1 sequence (A0A0C5AYL1 20-128): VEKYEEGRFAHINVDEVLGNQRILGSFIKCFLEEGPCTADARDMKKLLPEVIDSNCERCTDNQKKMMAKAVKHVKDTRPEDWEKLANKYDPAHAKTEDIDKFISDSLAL
Description: as §1
The intrinsic fluorescence of tryptophan was measured using a 2 μM FoccCSP protein solution. The excitation wavelength was 285 nm, and the emission spectrum was recorded between 290 and 530 nm. Quenching of the intrinsic fluorescence was measured in the presence of 2, 4, 6, 8, 10, 12, 14, 16, 18, and 20 μM 1-NPN under the same conditions.
To measure the affinity of the 1-NPN fluorescent ligand for FoccCSP, the 2 μM protein solution prepared above was titrated with 1 mM 1-NPN to a final concentration between 2 and 20 μM. […]
To determine the 1-NPN and FoccCSP binding constants, the intensity values corresponding to the maximum fluorescence emissions were plotted against the concentration of free ligand. The bound ligand was evaluated using the fluorescence intensity values assuming that the protein was 100% active and using a saturation stoichiometry of 1:1 protein:ligand. […]

[3] = competitive displacement of 1-NPN, 2 μM 1-NPN and 2 μM FoccCSP, ligands 2–300 μM, 50 mM Tris-HCl pH 7.4, 25°C, read-out: IC50

## 3- phenyl aldehyde
[1]; [3]
  IC50: 108 µM

## c1ccc(Nc2cccc3ccccc23)cc1 [1-NPN, N-phenyl-1-naphthylamine]
[2]
  Kd: 11.8 µM

## COc1ccc(C=O)cc1 [Anisic aldehyde]
[1]; [3]
  IC50: 11.4 µM

## O=Cc1ccccc1 [Benzaldehyde]
[1]
  IC50: 52.5 µM
[1]; 2 μM 1-NPN and 2 μM FoccCSP
  Kd: 48.4 µM

## CC(=O)OCc1ccccc1 [Benzyl acetate]
[1]
  IC50: 98.2 µM
[1]; 2 μM 1-NPN and 2 μM FoccCSP
  Kd: 90.5 µM

## OCc1ccccc1 [Benzyl alcohol]
[1]
  IC50: 119 µM
[1]; 2 μM 1-NPN and 2 μM FoccCSP
  Kd: 109 µM

## CC(C)=CCC[C@@H](C)CC=O [Citronellal]
[1]; [3]
  IC50: 76.1 µM

## CC(C)=CCCC(C)CCO (centres unmarked) [Citronellol]
[1]
  IC50: 75.8 µM
[1]; 2 μM 1-NPN and 2 μM FoccCSP
  Kd: 69.9 µM

## CCc1ccccc1 [Ethyl benzene]
[1]
  IC50: 63.4 µM
[1]; 2 μM 1-NPN and 2 μM FoccCSP
  Kd: 58.5 µM

## CCOC(=O)c1cccnc1 [Ethyl nicotinate]
[1]
  IC50: 52 µM
[1]; 2 μM 1-NPN and 2 μM FoccCSP
  Kd: 47.9 µM

## CC12CCC(CC1)C(C)(C)O2 [Eucalyptol]
[1]
  IC50: 92.4 µM
[1]; 2 μM 1-NPN and 2 μM FoccCSP
  Kd: 85.2 µM

## C=CCc1ccc(O)c(OC)c1 [Eugenol]
[1]
  IC50: 96.4 µM
[1]; 2 μM 1-NPN and 2 μM FoccCSP
  Kd: 88.9 µM

## CC(C)=CCC/C(C)=C/CO [Geraniol]
[1]
  IC50: 15.3 µM
[1]; 2 μM 1-NPN and 2 μM FoccCSP
  Kd: 14.1 µM

## CCCCCC [Hexane]
[1]
  IC50: 94.2 µM
[1]; 2 μM 1-NPN and 2 μM FoccCSP
  Kd: 86.9 µM

## C=CC(C)(O)CCC=C(C)C (centres unmarked) [Linalool]
[1]
  IC50: 85.6 µM
[1]; 2 μM 1-NPN and 2 μM FoccCSP
  Kd: 79 µM

## COC(=O)c1ccncc1 [Methyl isonicotinate]
[1]; [3]
  IC50: 52 µM

## COC(=O)c1ccccc1O [Methyl salicylate]
[1]
  IC50: 35.2 µM
[1]; 2 μM 1-NPN and 2 μM FoccCSP
  Kd: 32.5 µM

## CCCCCCCCC=O [Pelargonic aldehyde]
[1]; [3]
  IC50: 79 µM

## O=Cc1ccccc1O [Salicylaldehyde]
[1]; ligands up to 300 μM
  Displacement of 1-NPN from the FoccCSP/1-NPN complex, fluorescence intensity decreased to 50% of the initial value: unable to displace the fluorescent 1-NPN probe

## Neroli
[1]; [3]
  IC50: 98.9 µM
